Test results as given in patent publication US10610504B2, “Alpha-cell re-generation combined with conversion to beta cells” (INSERM (INSTITUT NATIONAL DE LA SANTÉ ET DE LA RECHERCHE …, priority 2014, dated 2020).

Columns and labels:
[1] = test system: insulin+ cells (beta cells); assay: Immunohistochemical characterisation of pancreata, GABA and Glu001 combination study; format: in vivo, mice; settings: 3-month old WT animals treated for a month, daily IP; vs saline
Experimental: To determine if the combination of GABA and Glu001 could increase beta-cell mass wild type mice were treated with 1) saline, 2) GABA (daily IP injections of 50 μM/40 g mouse), 3) Glu001 (daily IP injections of 4 mg/kg) and 4) GABA+Glu001.

beta-like cells = settings: upon GABA administration, as mentioned in WO14048788; cited from earlier work

For NCCCC(=O)O [GABA, gamma-amino butyric acid], the “insulin+ cell count / beta cell mass” value [1] is listed as “expected increase” and the beta-like cell number (beta-like cells) is listed as “progressive increase”.
